“And” between values parts separate entries of the source, which are not always exact repeats. Identical values can stand only once. Toxic doses and inconclusive results are not listed. No stated cut-off is given here; in the data, active means T/C of 150% or more; inactive means T/C below 125%.
System: L1210 leukemia ip in BDF1 mice, survival T/C
Experiment: NCI In Vivo Anticancer Drug Screen. Data for tumor model L1210 Leukemia (intraperitoneal) in B6D2F1 (BDF1) mice
Details: higher = longer survival
Outline: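 Read-out is survival time, reported as the treated-group measurement over the vehicle-control measurement.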

[1] = endpoint: mean survival time, dose: 100.0 mg/kg/injection, schedule: Q01DX001 (ip), vehicle: saline
[2] = endpoint: mean survival time, dose: 200.0 mg/kg/injection, schedule: Q01DX001 (ip), vehicle: saline

Measured: T/C

CS(=O)(=O)OCCCCOS(C)(=O)=O
inactive: endpoint: mean survival time, dose: 1.5 mg/kg/injection, schedule: Q04DX002 (ip), vehicle: saline with Tween-80 95 % of control and 106 % of control | endpoint: mean survival time, dose: 1.7 mg/kg/injection, schedule: Q01DX009 (ip), vehicle: saline with Tween-80 96 % of control and 108 % of control | endpoint: mean survival time, dose: 2.9 mg/kg/injection, schedule: Q04DX002 (ip), vehicle: saline with Tween-80 100 % of control and 107 % of control | endpoint: mean survival time, dose: 3.3 mg/kg/injection, schedule: Q01DX009 (ip), vehicle: saline with Tween-80 96 % of control and 105 % of control | endpoint: mean survival time, dose: 3.75 mg/kg/injection, schedule: Q01DX001 (ip), vehicle: carboxymethylcellulose (CMC) 103 % of control | endpoint: mean survival time, dose: 5.8 mg/kg/injection, schedule: Q04DX002 (ip), vehicle: saline with Tween-80 98 % of control and 102 % of control | endpoint: mean survival time, dose: 6.25 mg/kg/injection, schedule: Q01DX010 (ip), vehicle: saline 108 % of control and 118 % of control | endpoint: mean survival time, dose: 6.5 mg/kg/injection, schedule: Q01DX009 (ip), vehicle: saline with Tween-80 99 % of control and 105 % of control | endpoint: mean survival time, dose: 7.5 mg/kg/injection, schedule: Q01DX001 (ip), vehicle: carboxymethylcellulose (CMC) 112 % of control | endpoint: mean survival time, dose: 9.5 mg/kg/injection, schedule: Q02DX010 (ip), vehicle: carboxymethylcellulose (CMC) 111 % of control | endpoint: mean survival time, dose: 10.0 mg/kg/injection, schedule: Q01DX Z (ip), vehicle: carboxymethylcellulose (CMC) 104 % of control | endpoint: mean survival time, dose: 10.0 mg/kg/injection, schedule: Q02DX010 (ip), vehicle: carboxymethylcellulose (CMC) 97 % of control | endpoint: mean survival time, dose: 10.0 mg/kg/injection, schedule: Q02DX010 (ip), vehicle: other 112 % of control | endpoint: mean survival time, dose: 11.5 mg/kg/injection, schedule: Q04DX002 (ip), vehicle: saline with Tween-80 98 % of control and 109 % of control | endpoint: mean survival time, dose: 12.5 mg/kg/injection, schedule: Q01DX009 (ip), vehicle: saline 97 % of control and 104 % of control and 88 % of control | endpoint: mean survival time, dose: 12.5 mg/kg/injection, schedule: Q01DX010 (ip), vehicle: saline 116 % of control and 118 % of control | endpoint: mean survival time, dose: 12.5 mg/kg/injection, schedule: Q01DX Z (ip), vehicle: carboxymethylcellulose (CMC) 93 % of control and 102 % of control | endpoint: mean survival time, dose: 13.0 mg/kg/injection, schedule: Q01DX009 (ip), vehicle: saline with Tween-80 99 % of control and 101 % of control | endpoint: mean survival time, dose: 14.0 mg/kg/injection, schedule: Q02DX010 (ip), vehicle: carboxymethylcellulose (CMC) 96 % of control | endpoint: mean survival time, dose: 15.0 mg/kg/injection, schedule: Q01DX001 (ip), vehicle: carboxymethylcellulose (CMC) 101 % of control | endpoint: mean survival time, dose: 15.0 mg/kg/injection, schedule: Q02DX010 (ip), vehicle: carboxymethylcellulose (CMC) 98 % of control | endpoint: mean survival time, dose: 15.0 mg/kg/injection, schedule: Q02DX010 (ip), vehicle: other 104 % of control | endpoint: mean survival time, dose: 20.0 mg/kg/injection, schedule: Q01DX Z (ip), vehicle: carboxymethylcellulose (CMC) 103 % of control | endpoint: mean survival time, dose: 22.0 mg/kg/injection, schedule: Q02DX010 (ip), vehicle: carboxymethylcellulose (CMC) 103 % of control and 113 % of control | endpoint: mean survival time, dose: 22.0 mg/kg/injection, schedule: Q02DX010 (ip), vehicle: other 106 % of control | endpoint: mean survival time, dose: 23.0 mg/kg/injection, schedule: Q04DX002 (ip), vehicle: saline with Tween-80 98 % of control and 100 % of control | endpoint: mean survival time, dose: 25.0 mg/kg/injection, schedule: Q01DX009 (ip), vehicle: saline with Tween-80 101 % of control and 115 % of control | endpoint: mean survival time, dose: 25.0 mg/kg/injection, schedule: Q01DX009 (ip), vehicle: saline 96 % of control (2×) and 111 % of control | endpoint: mean survival time, dose: 25.0 mg/kg/injection, schedule: Q01DX Z (ip), vehicle: carboxymethylcellulose (CMC) 102 % of control and 105 % of control | endpoint: mean survival time, dose: 27.0 mg/kg/injection, schedule: Q01DX001 (ip), vehicle: carboxymethylcellulose (CMC) 96 % of control | endpoint: mean survival time, dose: 30.0 mg/kg/injection, schedule: Q01DX001 (ip), vehicle: carboxymethylcellulose (CMC) 106 % of control | endpoint: mean survival time, dose: 33.0 mg/kg/injection, schedule: Q02DX010 (ip), vehicle: other 112 % of control | endpoint: mean survival time, dose: 40.0 mg/kg/injection, schedule: Q01DX Z (ip), vehicle: carboxymethylcellulose (CMC) 110 % of control | endpoint: mean survival time, dose: 40.0 mg/kg/injection, schedule: Q01DX Z (oral), vehicle: saline 94 % of control | endpoint: mean survival time, dose: 41.0 mg/kg/injection, schedule: Q01DX001 (ip), vehicle: carboxymethylcellulose (CMC) 103 % of control | endpoint: mean survival time, dose: 46.0 mg/kg/injection, schedule: Q04DX002 (ip), vehicle: saline with Tween-80 104 % of control and 107 % of control | endpoint: mean survival time, dose: 49.0 mg/kg/injection, schedule: Q01DX009 (ip), vehicle: saline with Tween-80 103 % of control and 121 % of control | endpoint: mean survival time, dose: 50.0 mg/kg/injection, schedule: Q01DX009 (ip), vehicle: saline 98 % of control and 109 % of control and 120 % of control | endpoint: mean survival time, dose: 50.0 mg/kg/injection, schedule: Q01DX010 (ip), vehicle: saline 111 % of control and 88 % of control | endpoint: mean survival time, dose: 50.0 mg/kg/injection, schedule: Q01DX Z (ip), vehicle: carboxymethylcellulose (CMC) 103 % of control | endpoint: mean survival time, dose: 50.0 mg/kg/injection, schedule: Q02DX010 (ip), vehicle: carboxymethylcellulose (CMC) 101 % of control and 107 % of control | endpoint: mean survival time, dose: 50.0 mg/kg/injection, schedule: Q02DX010 (ip), vehicle: other 115 % of control | endpoint: mean survival time, dose: 60.0 mg/kg/injection, schedule: Q01DX001 (ip), vehicle: carboxymethylcellulose (CMC) 110 % of control | endpoint: mean survival time, dose: 61.0 mg/kg/injection, schedule: Q01DX001 (ip), vehicle: carboxymethylcellulose (CMC) 98 % of control | endpoint: mean survival time, dose: 75.0 mg/kg/injection, schedule: Q02DX010 (ip), vehicle: carboxymethylcellulose (CMC) 89 % of control | endpoint: mean survival time, dose: 80.0 mg/kg/injection, schedule: Q01DX Z (oral), vehicle: saline 105 % of control | endpoint: mean survival time, dose: 100.0 mg/kg/injection, schedule: Q01DX009 (ip), vehicle: saline 88 % of control | endpoint: mean survival time, dose: 100.0 mg/kg/injection, schedule: Q01DX Z (ip), vehicle: carboxymethylcellulose (CMC) 93 % of control | endpoint: mean survival time, dose: 100.0 mg/kg/injection, schedule: Q04DX003 (ip), vehicle: saline with Tween-80 101 % of control | endpoint: mean survival time, dose: 120.0 mg/kg/injection, schedule: Q01DX001 (ip), vehicle: carboxymethylcellulose (CMC) 100 % of control | endpoint: mean survival time, dose: 160.0 mg/kg/injection, schedule: Q01DX Z (oral), vehicle: saline 108 % of control | endpoint: mean survival time, dose: 200.0 mg/kg/injection, schedule: Q04DX003 (ip), vehicle: saline with Tween-80 104 % of control | endpoint: mean survival time, dose: 400.0 mg/kg/injection, schedule: Q04DX003 (ip), vehicle: saline with Tween-80 104 % of control | endpoint: median survival time, dose: 10.0 mg/kg/injection, schedule: Q01DX009 (ip), vehicle: saline 105 % of control | endpoint: median survival time, dose: 12.5 mg/kg/injection, schedule: Q01DX009 (ip), vehicle: saline 95 % of control and 112 % of control | endpoint: median survival time, dose: 20.0 mg/kg/injection, schedule: Q01DX009 (ip), vehicle: saline 100 % of control | endpoint: median survival time, dose: 25.0 mg/kg/injection, schedule: Q01DX009 (ip), vehicle: saline 110 % of control and 112 % of control | endpoint: median survival time, dose: 40.0 mg/kg/injection, schedule: Q01DX009 (ip), vehicle: saline 100 % of control | endpoint: median survival time, dose: 50.0 mg/kg/injection, schedule: Q01DX009 (ip), vehicle: saline 100 % of control and 112 % of control | endpoint: median survival time, dose: 80.0 mg/kg/injection, schedule: Q01DX009 (ip), vehicle: saline 110 % of control | endpoint: median survival time, dose: 100.0 mg/kg/injection, schedule: Q01DX009 (ip), vehicle: saline 100 % of control | endpoint: median survival time, dose: 160.0 mg/kg/injection, schedule: Q01DX009 (ip), vehicle: saline 100 % of control

Nc1nc(N)c(N=Nc2c(Br)cc(S(N)(=O)=O)cc2Br)c(=O)[nH]1
inactive: [1] 100 % of control | [2] 105 % of control | endpoint: mean survival time, dose: 400.0 mg/kg/injection, schedule: Q01DX001 (ip), vehicle: saline 102 % of control

CCN(CC)C(C)(O)CN (stereo not given)
inactive: [1] 98 % of control | [2] 103 % of control

O=C(Nc1ccc(NC(=O)/C(Cl)=C/Cl)c2c1C(=O)c1ccccc1C2=O)/C(Cl)=C/Cl
inactive: endpoint: mean survival time, dose: 100.0 mg/kg/injection, schedule: Q01DX001 (ip), vehicle: carboxymethylcellulose (CMC) 92 % of control | endpoint: mean survival time, dose: 200.0 mg/kg/injection, schedule: Q01DX001 (ip), vehicle: carboxymethylcellulose (CMC) 92 % of control | endpoint: mean survival time, dose: 400.0 mg/kg/injection, schedule: Q01DX001 (ip), vehicle: carboxymethylcellulose (CMC) 100 % of control

CCCn1c(=O)cc(/C=N/Nc2ccc([N+](=O)[O-])cc2[N+](=O)[O-])c2ccccc21
inactive: endpoint: mean survival time, dose: 100.0 mg/kg/injection, schedule: Q01DX001 (ip), vehicle: saline with Tween-80 90 % of control | endpoint: mean survival time, dose: 200.0 mg/kg/injection, schedule: Q01DX001 (ip), vehicle: saline with Tween-80 90 % of control | endpoint: mean survival time, dose: 400.0 mg/kg/injection, schedule: Q01DX001 (ip), vehicle: saline with Tween-80 90 % of control

BrCCOc1ccccc1
inactive: endpoint: mean survival time, dose: 100.0 mg/kg/injection, schedule: Q01DX009 (ip), vehicle: other 95 % of control | endpoint: mean survival time, dose: 200.0 mg/kg/injection, schedule: Q01DX009 (ip), vehicle: other 101 % of control

From PubChem BioAssay AID248 (DTP/NCI, 2004)
